Test results taken from paper PMC5825103 (PLoS ONE, 2018).

Assays:
[1] = test system: uni-nephrectomised db/db mice; assay: organ protection in db/db uni-nephrectomised mice; type: in vivo
Description: Obese diabetic male db/db mice (BKS.Cg-Dock7^m +/+ Lepr^db/J homozygotes) and their littermate male db/m mice were obtained from the Jackson Laboratory (Bar Harbor, ME, USA). […] Mice were subjected to right uninephrectomy at 8 weeks of age to hasten the development of diabetic nephropathy as described previously [43]. Db/m mice that received a uninephrectomy at 8 weeks of age served as the operation control. […] All surgery was performed under isoflurane anesthesia, and all efforts were made to minimize suffering.
The blood glucose level and glycosylated hemoglobin (HbA1C) levels were monitored in tail blood samples using a blood glucose meter (Glucometer Elite XL, Bayer Healthcare, Elkhart, IN, USA) and the DC 2000+ HbA1C kit (Bayer Healthcare), respectively, before treatment and at the time of sacrifice. Twenty-four-hour urine was obtained from each mouse after placement in metabolic cages before treatment and at the time of sacrifice. Urine albumin was measured using the DC2000+ microalbumin reagent kit (Bayer Healthcare).
Mice were sacrificed under isoflurane anesthesia. Blood samples were obtained by cardiac puncture for the measurements of plasma compound, K^+ and creatinine concentrations. Plasma K^+ levels were determined on a Radiometer ABL 700 blood gas analyser (Radiometer, Copnchagen DK). Plasma creatinine levels were determined by LC-MS/MS. Urine creatinine was measured by the Jaffe method (Creatinine FS, REF117119910021, DiaSys). Kidneys were perfused through the heart with cold PBS and then excised. One piece of renal cortex was fixed in 10% neutralized formalin for histological staining.
Formalin-fixed renal cortex tissues were subsequently embedded in paraffin. Three-micrometer sections were cut from the tissue blocks and stained with periodic acid-Schiff (PAS). The PAS-positive glomerular matrix was quantitated in a blinded fashion by a computer-assisted method as previously described [43]. At least 20 glomeruli from each individual mouse were assessed. The PAS-positive material area in the mesangium was normalized by that of the total glomerular tuft where the percentage of mesangial matrix occupying each glomerulus area was rated. Glomerular sclerosis index was graded from 0 to 4+ as follows: 0 represents no lesion, 1+ represents sclerosis of <25% of the glomerulus, while 2 =, 3+ and 4+ represent sclerosis of 25% to 50%, >50% to 75%, and >75% of the glomerulus, respectively. A whole kidney average sclerosis index was obtained by averaging scores from all glomeruli on one section.

[2] = target: T1, MR-LBD binding to co-activator peptides (Homo sapiens, UniProt P08235, C808S); assay: co-factor peptide recruitment by surface plasmon resonance; conditions: 50 μM compound, relative to dexamethasone, seven peptides
T1 construct: MR-LBD (amino acids 712–984) with the mutations C808S; 6-HN tag (thrombin cleavable) (N); made in house
T1 sequence (P08235 712-984 C808S): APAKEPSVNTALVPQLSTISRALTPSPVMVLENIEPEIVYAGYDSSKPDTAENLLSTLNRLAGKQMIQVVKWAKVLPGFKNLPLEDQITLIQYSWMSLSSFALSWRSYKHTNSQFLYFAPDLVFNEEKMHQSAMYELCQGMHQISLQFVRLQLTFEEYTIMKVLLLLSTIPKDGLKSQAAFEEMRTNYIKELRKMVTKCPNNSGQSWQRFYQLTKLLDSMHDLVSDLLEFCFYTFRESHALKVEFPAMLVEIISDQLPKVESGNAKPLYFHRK
Description: Co-activator recruitment of MR was determined using surface plasmon resonance (SPR) biosensor (Biacore 3000, GE Healthcare) by probing the level of receptor binding to seven surface-immobilized co-activator peptides. All peptides carried an N-terminal biotin for surface-immobilisation, the following peptides and sequences were used:
Prior to the SPR measurements, excess dexamethasone was removed by gel filtration via a passage through a PD10 column (GE Healthcare) equilibrated in SPR running buffer (10 mM HEPES, 50 mM NaCl, 0,005% P20, pH 7.6). […] The surface was prepared through immobilization of the biotinylated peptides on a streptavidin chip (GE Healthcare) to levels of 1000±300 RU. The binding level at equilibrium was monitored for all samples including the reference sample that contained remaining traces of dexamethasone. All data was normalized to this reference sample in order to quantify the effects on peptide binding without bias by receptor instability. The surface was regenerated with 0.5% (w/v) SDS after each injection.

CCOC(=O)[C@H](CCc1ccccc1)N[C@@H](C)C(=O)N1CCC[C@H]1C(=O)O [enalapril]
FE K+ end ([1]; after 4 weeks treatment): 15.6 ± 0.4%
FE Na+ end ([1]; after 4 weeks treatment): 0.18 ± 0.01%
UAE w22 ([1]; after 4 weeks treatment): 583 ± 97 µg 24h-1
p-K+ end ([1]; after 4 weeks treatment): 4.4 ± 0.1 mM
u-K+ end ([1]; after 4 weeks treatment): 0.90 ± 0.07 mmol/24h
u-Na+ end ([1]; after 4 weeks treatment): 0.36 ± 0.03 mmol/24h
u-Na+/K+ end ([1]; after 4 weeks treatment): 0.40 ± 0.01
UAE w18 ([1]; before treatment, 18 weeks of age): 958 ± 184 µg 24h-1
increased injury (glomerular ECM scoring) from week 18 to 22 ([1]; four week treatment): prevented

C[C@]12CCC(=O)C=C1CC[C@@H]1[C@@H]2[C@@H](O)C[C@]2(C=O)[C@@H](C(=O)CO)CC[C@@H]12 [aldosterone]
co-activator peptide binding [2]: strongest peptide binding
